In patent publication US12568972B2, “Pyridazinol compounds and derivatives, preparation methods, herbicidal compositions and applications thereof” (Qingdao Kingagroot Chemical Compound Co., Ltd., priority 2018, dated 2026):

Legend:
Test in all cases: Post-emergence test, weed control effect
Assay type in all cases: in vivo
Conditions in all cases: after 3 weeks
Amaranthus retroflexus = test system: Amaranthus retroflexus
Outline: (§1)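 Activity is expressed as a level from 0 (no effect) to 10 (plant dead), each step matching a further 10% fresh-weight inhibition, assessed 3 weeks post-treatment. Treatment: spray at 2-3 leaf stage of pot-grown plants, compound in acetone, Tween-80 and water with 80% vegetable oil methyl ester synergist at 1500 g/ha.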

Rorippa indica = test system: Rorippa indica
Outline: as §1

Veronica polita = test system: Veronica polita
Outline: as §1

Chenopodiaceae = test system: Chenopodiaceae
Outline: as §1

Cn1ncc(Br)c1-c1nnc(C(F)(F)F)cc1O [Compound 806]
10: weed control effect (activity level), Amaranthus retroflexus (Amaranthus retroflexus; Dose 3000 g/ha) | weed control effect (activity level), Rorippa indica (Rorippa indica; Dose 3000 g/ha) | weed control effect (activity level), Veronica polita (Veronica polita; Dose 3000 g/ha) | weed control effect (activity level), Chenopodiaceae (Chenopodiaceae; Dose 3000 g/ha)

Oc1cc(C(F)(F)F)nnc1-c1ccc(C2CC2)cc1 [Compound 24]
10: weed control effect (activity level), Amaranthus retroflexus (Amaranthus retroflexus; dose 2000 g/ha) | weed control effect (activity level), Rorippa indica (Rorippa indica; dose 2000 g/ha) | weed control effect (activity level), Veronica polita (Veronica polita; dose 2000 g/ha) | weed control effect (activity level), Chenopodiaceae (Chenopodiaceae; dose 2000 g/ha)

Cn1nc(F)cc1-c1nnc(C(F)(F)F)cc1O [Compound 775]
10: weed control effect (activity level), Amaranthus retroflexus (Amaranthus retroflexus; Dose 3000 g/ha) | weed control effect (activity level), Rorippa indica (Rorippa indica; Dose 3000 g/ha) | weed control effect (activity level), Veronica polita (Veronica polita; Dose 3000 g/ha) | weed control effect (activity level), Chenopodiaceae (Chenopodiaceae; Dose 3000 g/ha)

Cc1ncoc1C(=O)Oc1cc(C(F)(F)F)nnc1-c1ccc(F)c(F)c1 [Compound 1-108]
10: weed control effect, Amaranthus retroflexus (activity level) (Amaranthus retroflexus; Dose 3000 g/ha) | weed control effect, Rorippa indica (activity level) (Rorippa indica; Dose 3000 g/ha) | weed control effect, Veronica polita (activity level) (Veronica polita; Dose 3000 g/ha) | weed control effect, Chenopodiaceae (activity level) (Chenopodiaceae; Dose 3000 g/ha)

O=S(=O)(Oc1cc(C(F)(F)F)nnc1-c1ccc(F)c(Cl)c1)c1ccc(Oc2ccc(F)cc2)cc1 [Compound 1-142]
10: weed control effect, Amaranthus retroflexus (activity level) (Amaranthus retroflexus; Dose 3000 g/ha) | weed control effect, Rorippa indica (activity level) (Rorippa indica; Dose 3000 g/ha) | weed control effect, Veronica polita (activity level) (Veronica polita; Dose 3000 g/ha) | weed control effect, Chenopodiaceae (activity level) (Chenopodiaceae; Dose 3000 g/ha)

Oc1cc(C(F)(F)F)nnc1-c1ccc2occc2c1 [Compound 595]
10: weed control effect (activity level), Amaranthus retroflexus (Amaranthus retroflexus; Dose 3000 g/ha) | weed control effect (activity level), Rorippa indica (Rorippa indica; Dose 3000 g/ha) | weed control effect (activity level), Veronica polita (Veronica polita; Dose 3000 g/ha) | weed control effect (activity level), Chenopodiaceae (Chenopodiaceae; Dose 3000 g/ha)

O=S(=O)(Oc1cc(C(F)(F)F)nnc1-c1ccc(F)c(F)c1)c1ccc(C(F)(F)F)cc1 [Compound 1-129]
10: weed control effect, Amaranthus retroflexus (activity level) (Amaranthus retroflexus; Dose 3000 g/ha) | weed control effect, Rorippa indica (activity level) (Rorippa indica; Dose 3000 g/ha) | weed control effect, Veronica polita (activity level) (Veronica polita; Dose 3000 g/ha) | weed control effect, Chenopodiaceae (activity level) (Chenopodiaceae; Dose 3000 g/ha)

CN(C)c1ccc(C(=O)Oc2cc(C(F)(F)F)nnc2-c2cccc(F)c2)cc1 [Compound 1-90]
10: weed control effect, Amaranthus retroflexus (activity level) (Amaranthus retroflexus; Dose 3000 g/ha) | weed control effect, Rorippa indica (activity level) (Rorippa indica; Dose 3000 g/ha) | weed control effect, Veronica polita (activity level) (Veronica polita; Dose 3000 g/ha) | weed control effect, Chenopodiaceae (activity level) (Chenopodiaceae; Dose 3000 g/ha)

O=C(/C=C/c1ccc(Cl)cc1)Oc1cc(C(F)(F)F)nnc1-c1ccc(F)cc1 [Compound 1-97]
10: weed control effect, Amaranthus retroflexus (activity level) (Amaranthus retroflexus; Dose 3000 g/ha) | weed control effect, Rorippa indica (activity level) (Rorippa indica; Dose 3000 g/ha) | weed control effect, Veronica polita (activity level) (Veronica polita; Dose 3000 g/ha) | weed control effect, Chenopodiaceae (activity level) (Chenopodiaceae; Dose 3000 g/ha)

COc1c(C)ccc(F)c1-c1nnc(C(F)(F)F)cc1O [Compound 62]
10: weed control effect (activity level), Amaranthus retroflexus (Amaranthus retroflexus; dose 1000 g/ha) | weed control effect (activity level), Rorippa indica (Rorippa indica; dose 1000 g/ha) | weed control effect (activity level), Veronica polita (Veronica polita; dose 1000 g/ha) | weed control effect (activity level), Chenopodiaceae (Chenopodiaceae; dose 1000 g/ha)

COc1c(Cl)ccc(-c2nnc(C(F)(F)F)cc2O)c1F [Compound 741]
10: weed control effect (activity level), Amaranthus retroflexus (Amaranthus retroflexus; Dose 3000 g/ha) | weed control effect (activity level), Rorippa indica (Rorippa indica; Dose 3000 g/ha) | weed control effect (activity level), Veronica polita (Veronica polita; Dose 3000 g/ha) | weed control effect (activity level), Chenopodiaceae (Chenopodiaceae; Dose 3000 g/ha)

Cc1cc(-c2nnc(C(F)(F)F)cc2O)n(C(C)C)n1 [Compound 829]
10: weed control effect (activity level), Amaranthus retroflexus (Amaranthus retroflexus; Dose 3000 g/ha) | weed control effect (activity level), Rorippa indica (Rorippa indica; Dose 3000 g/ha) | weed control effect (activity level), Veronica polita (Veronica polita; Dose 3000 g/ha) | weed control effect (activity level), Chenopodiaceae (Chenopodiaceae; Dose 3000 g/ha)

O=S(=O)(Oc1cc(C(F)(F)F)nnc1-c1ccc(Cl)cc1)c1cccc(OC(F)F)c1 [Compound 1-139]
10: weed control effect, Amaranthus retroflexus (activity level) (Amaranthus retroflexus; Dose 3000 g/ha) | weed control effect, Rorippa indica (activity level) (Rorippa indica; Dose 3000 g/ha) | weed control effect, Veronica polita (activity level) (Veronica polita; Dose 3000 g/ha) | weed control effect, Chenopodiaceae (activity level) (Chenopodiaceae; Dose 3000 g/ha)

Oc1cc(C(F)(F)F)nnc1-c1cn2ncccc2n1 [Compound 570]
10: weed control effect (activity level), Amaranthus retroflexus (Amaranthus retroflexus; Dose 3000 g/ha) | weed control effect (activity level), Rorippa indica (Rorippa indica; Dose 3000 g/ha) | weed control effect (activity level), Veronica polita (Veronica polita; Dose 3000 g/ha) | weed control effect (activity level), Chenopodiaceae (Chenopodiaceae; Dose 3000 g/ha)

Fc1ccc(-c2nnc(C(F)(F)F)cc2Oc2ccccc2)cc1F [Compound 1-208]
10: weed control effect, Amaranthus retroflexus (activity level) (Amaranthus retroflexus; Dose 3000 g/ha) | weed control effect, Rorippa indica (activity level) (Rorippa indica; Dose 3000 g/ha) | weed control effect, Veronica polita (activity level) (Veronica polita; Dose 3000 g/ha) | weed control effect, Chenopodiaceae (activity level) (Chenopodiaceae; Dose 3000 g/ha)

O=C(/C=C\c1ccccc1)Oc1cc(C(F)(F)F)nnc1-c1ccc(Cl)cc1 [Compound 1-96]
10: weed control effect, Amaranthus retroflexus (activity level) (Amaranthus retroflexus; Dose 3000 g/ha) | weed control effect, Rorippa indica (activity level) (Rorippa indica; Dose 3000 g/ha) | weed control effect, Veronica polita (activity level) (Veronica polita; Dose 3000 g/ha) | weed control effect, Chenopodiaceae (activity level) (Chenopodiaceae; Dose 3000 g/ha)

Oc1cc(C(F)(F)F)nnc1-c1ccnn1-c1ccccc1 [Compound 832]
10: weed control effect (activity level), Amaranthus retroflexus (Amaranthus retroflexus; Dose 3000 g/ha) | weed control effect (activity level), Rorippa indica (Rorippa indica; Dose 3000 g/ha) | weed control effect (activity level), Veronica polita (Veronica polita; Dose 3000 g/ha) | weed control effect (activity level), Chenopodiaceae (Chenopodiaceae; Dose 3000 g/ha)

CCc1cc(C(F)(F)F)cc(-c2nnc(C(F)(F)F)cc2O)c1C#N [Compound 163]
10: weed control effect (activity level), Amaranthus retroflexus (Amaranthus retroflexus; dose 2000 g/ha) | weed control effect (activity level), Rorippa indica (Rorippa indica; dose 2000 g/ha) | weed control effect (activity level), Veronica polita (Veronica polita; dose 2000 g/ha) | weed control effect (activity level), Chenopodiaceae (Chenopodiaceae; dose 2000 g/ha)
